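Dose response: 5 concentrations. Exposure: 48 h. Format: 96-well plates. Endpoint: linear interpolation; highest concentration if not reached. GI50: concentration for 50% inhibition of growth. Definition used: TGI = concentration required for complete inhibition of growth.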
What was measured:
Assay in all cases: growth of human tumour cells (NCI), 48 h
A549 NSCLC = test system: A549 NSCLC
HCT-116 colon = test system: HCT-116 colon
CCRF-CEM leukemia = test system: CCRF-CEM leukemia
NCI-H226 lung = test system: NCI-H226 lung
RXF 393 renal = test system: RXF 393 renal
UACC-62 melanoma = test system: UACC-62 melanoma
K-562 leukemia = test system: K-562 leukemia
UACC-257 melanoma = test system: UACC-257 melanoma
KM12 colon = test system: KM12 colon
HOP-92 NSCLC = test system: HOP-92 NSCLC

O=c1oc2cc(OS(=O)(=O)c3ccccc3)ccc2c2c1CCCCC2
GI50 (A549 NSCLC): 4.78 µM | TGI (A549 NSCLC): > 100 µM | GI50 (HCT-116 colon): 3.62 µM | TGI (HCT-116 colon): > 100 µM | GI50 (CCRF-CEM leukemia): 4.56 µM | TGI (CCRF-CEM leukemia): > 100 µM | GI50 (NCI-H226 lung): > 100 µM | TGI (NCI-H226 lung): > 100 µM | GI50 (RXF 393 renal): 4.55 µM | TGI (RXF 393 renal): > 100 µM | GI50 (UACC-62 melanoma): 4.73 µM | TGI (UACC-62 melanoma): > 100 µM | GI50 (K-562 leukemia): 4.06 µM | TGI (K-562 leukemia): > 100 µM | GI50 (UACC-257 melanoma): 7.31 µM | TGI (UACC-257 melanoma): > 100 µM

CCC1OC(/C(C)=C/C(C)/C=C/C2C(C)C2/C=C/C2OC(CC(=O)O)CC(O)C2O)CC=C1C (stereo not drawn)
GI50 (KM12 colon): > 50 µM | TGI (KM12 colon): > 50 µM | GI50 (A549 NSCLC): > 50 µM | TGI (A549 NSCLC): > 50 µM | GI50 (HCT-116 colon): > 50 µM | TGI (HCT-116 colon): > 50 µM | GI50 (CCRF-CEM leukemia): > 50 µM | TGI (CCRF-CEM leukemia): > 50 µM | GI50 (NCI-H226 lung): > 50 µM | TGI (NCI-H226 lung): > 50 µM | GI50 (RXF 393 renal): > 50 µM | TGI (RXF 393 renal): > 50 µM | GI50 (UACC-62 melanoma): > 50 µM | TGI (UACC-62 melanoma): > 50 µM | GI50 (K-562 leukemia): > 50 µM | TGI (K-562 leukemia): > 50 µM | GI50 (UACC-257 melanoma): > 50 µM | TGI (UACC-257 melanoma): > 50 µM

N#Cc1ccc2c(c1)C(=O)c1c-2n(CCCN=[N+]=[N-])c(=O)c2cc([N+](=O)[O-])ccc12
GI50 (KM12 colon): > 50 µM | TGI (KM12 colon): > 50 µM | GI50 (HCT-116 colon): 3.91 µM | TGI (HCT-116 colon): > 50 µM | GI50 (CCRF-CEM leukemia): 1.82 µM | TGI (CCRF-CEM leukemia): > 50 µM | GI50 (NCI-H226 lung): 40 µM | TGI (NCI-H226 lung): > 50 µM | GI50 (HOP-92 NSCLC): 5.55 µM | TGI (HOP-92 NSCLC): 40.1 µM | GI50 (RXF 393 renal): > 50 µM | TGI (RXF 393 renal): > 50 µM | GI50 (UACC-62 melanoma): 3.6 µM | TGI (UACC-62 melanoma): > 50 µM | GI50 (UACC-257 melanoma): > 50 µM | TGI (UACC-257 melanoma): > 50 µM

Cc1cccc(O)c(=O)c1
TGI (KM12 colon): > 100 µM | TGI (A549 NSCLC): > 100 µM | TGI (HCT-116 colon): > 100 µM | TGI (CCRF-CEM leukemia): 33.8 µM | TGI (NCI-H226 lung): 29.3 µM | TGI (HOP-92 NSCLC): > 100 µM | TGI (RXF 393 renal): > 100 µM | TGI (UACC-62 melanoma): > 100 µM | TGI (UACC-257 melanoma): > 100 µM

[N-]=[N+]=Nc1c(Br)c(=O)[nH]c(=O)n1COCCO
TGI (KM12 colon): > 100 µM | TGI (A549 NSCLC): > 100 µM | TGI (HCT-116 colon): > 100 µM | TGI (CCRF-CEM leukemia): > 100 µM | TGI (HOP-92 NSCLC): > 100 µM | TGI (RXF 393 renal): > 100 µM | TGI (UACC-62 melanoma): > 100 µM | TGI (K-562 leukemia): > 100 µM | TGI (UACC-257 melanoma): > 100 µM

C=C1C[C@@H]2[C@H](CC[C@]3(C)C(=O)CC[C@@H]23)[C@@]2(C)C=CC(=O)C=C12
GI50 (KM12 colon): 30.7 µM | TGI (KM12 colon): > 70 µM | GI50 (A549 NSCLC): 11.5 µM | TGI (A549 NSCLC): > 51.8 µM | GI50 (HCT-116 colon): 14.7 µM | TGI (HCT-116 colon): 29.9 µM | GI50 (CCRF-CEM leukemia): 24.5 µM | TGI (CCRF-CEM leukemia): > 74.9 µM | GI50 (NCI-H226 lung): 20.2 µM | TGI (NCI-H226 lung): > 60 µM | GI50 (HOP-92 NSCLC): > 100 µM | TGI (HOP-92 NSCLC): > 100 µM | GI50 (UACC-62 melanoma): 8.11 µM | TGI (UACC-62 melanoma): 30 µM | GI50 (K-562 leukemia): > 59.8 µM | TGI (K-562 leukemia): > 100 µM

O=C(Nc1ccccc1C(=O)Nc1nccs1)c1ccccc1
TGI (KM12 colon): > 100 µM | TGI (A549 NSCLC): > 100 µM | TGI (HCT-116 colon): > 100 µM | TGI (CCRF-CEM leukemia): > 100 µM | TGI (NCI-H226 lung): > 100 µM | TGI (UACC-62 melanoma): > 100 µM | TGI (K-562 leukemia): > 100 µM | TGI (UACC-257 melanoma): > 100 µM

Cc1cc(Cl)ccc1NC(=O)CCCC(=O)C(C(=O)c1ccccc1)c1ccccc1 (stereo not drawn)
TGI (KM12 colon): > 100 µM | TGI (CCRF-CEM leukemia): > 100 µM | TGI (HOP-92 NSCLC): > 100 µM | TGI (UACC-62 melanoma): > 100 µM | TGI (K-562 leukemia): > 100 µM | TGI (UACC-257 melanoma): > 100 µM
